How the values were obtained:
Type in all cases: cell-based
Jurkat T cells [1] = assay: pEGFP-N3 plasmid DNA delivery, GFP expression by immunoblotting; conditions: for plasmid DNA delivery efficiency depending on leucine length: 10 or 11 leucines with 2×NLS, same experiment as Example 1-1; for GFP expression depending on copy number of NLS: 2, 3 or 4 copies of NLS after 10 leucines
Procedure: Specific sequences thereof are shown in Table 2 below (Peptides 1 to 10). Each of the above peptides at a concentration of 4 μM was mixed with 2 μg of pEGFP-N3 plasmid for 30 minutes in a CO2 incubator at 37° C. After transfection of the plasmids into Jurkat T cells for 30 minutes, the expression of GFP was analyzed by immunoblotting after 24 hours (FIG. 1).
Peptides containing 10 or 11 leucine amino acids and 2×NLS linked thereto were prepared (Peptides 1 and 11), and based on these peptides, the effect of the number of leucine amino acids on the transmission level was further determined. Each of the above peptides was subjected to the same experiment as in Example 1-1, and then the expression of GFP was analyzed by immunoblotting (FIG. 2).
Peptides were prepared by varying the copy number of NLS, located following the 10 leucine amino acid sequences, to 2, 3, or 4, and specific sequences thereof are shown in Table 2 below (Peptides 1, 12, and 13). For each peptide, the change in GFP expression depending on the copy number of NLS was confirmed by immunoblotting (FIG. 3).
Accordingly, the copy number of NLS was set to 2, and a peptide (L10-2×NLS) in which the NLS amino acid sequence was located at the C-terminus, following leucine, and a peptide (2×NLS-L10) in which the NLS amino acid sequence was located at the N-terminus, preceding leucine, were prepared. Each of the above peptides (Peptide 1 and 14) was mixed with pEGFP-N3 and transfected into Jurkat T cells. Then, the expression changes of GFP were compared.
L10-2×NLS at different concentrations (2, 3, 4, 5, or 6 μM) was mixed with 2 μg of pEGFP-N3 and transfected into Jurkat T cells. The expression of GFP was then confirmed by immunoblotting (FIG. 5).
Next, pEGFP-N3 at different concentrations (0, 0.25, 0.5, 1, 2, 4, 5, or 6 μg) was mixed with 4 μM of L10-2×NLS and transfected into Jurkat T cells. The expression of GFP was then confirmed by immunoblotting (FIG. 6).
First, 4 μM L10-2×NLS and 2 μg pEGFP-N3 were mixed at 4, 16, 25, 37, or 42° C. for 30 minutes and transfected into Jurkat T cells for 30 minutes. […] (FIG. 7).
Thus, the temperature was set to 37° C., and 4 μM L10-2×NLS and 2 μg pEGFP-N3 were mixed for different times (10, 20, 30, 40, 50, or 60 minutes).
Finally, in an experiment as to the buffer used for the mixing, 4 μM of L10-2×NLS and 2 μg of pEGFP-N3 were mixed with Opti-MEM, DPBS, or Serum free RPMI-1640 (SF) buffer, respectively.
L10-2×NLS (4 μM) and pEGFP-N3 (2 μg) were mixed according to the above optimized conditions and transfected into Jurkat T cells for 0.5, 1, 2, 3, 4, or 5 hours to compare the changes in GFP expression over time (FIG. 10).

Jurkat T cells [2] = assay: Cell morphology and viability (MTT assay) after transfection; conditions: 4 μM L10-2×NLS, 2 μg pEGFP-N3, morphology after 24 hours
Procedure: L10-2×NLS (4 μM) and pEGFP-N3 (2 μg) were mixed and transfected into Jurkat T cells, and changes in cell morphology after 24 hours were observed (FIG. 14). The cell viability after transfection was analyzed using MTT assay (FIG. 15).

Jurkat T cells [3] = assay: Fluorescein-labeled plasmid DNA delivery efficiency by FACS; conditions: after 0.5 hours; 2 μg fluorescein-labeled plasmid DNA, 4 μM L10-2×NLS
Procedure: Fluorescein-labeled plasmid DNA (Takara) (2 μg) was mixed with L10-2×NLS (4 μM) and transfected into Jurkat T cells for 0.5, 1, 2, 3, 4, or 5 hours. Then, the delivery efficiency of the plasmid DNA into Jurkat T cells was analyzed using Novocyte FACS (Agilent) (FIG. 16).

Jurkat T cells [4] = assay: Location of fluorescein-labeled plasmid DNA by fluorescence microscope (Hoechst 33342)
From the text: Next, fluorescein-labeled plasmid DNA and L10-2×NLS were mixed and transfected into Jurkat T cells, followed by treatment with nucleus staining reagent Hoechst 33342 (ThermoFisher). The location of the plasmid DNA in Jurkat T cells was then confirmed using a fluorescence microscope (Leica) (FIG. 17), and the data were quantified and analyzed through graphical representation (FIG. 18).

human primary T cells = assay: CAR plasmid DNA delivery, CAR expression by immunoblotting with FLAG antibody; conditions: 4 μM L10-2×NLS, 2 μg FLAG-tagged CAR plasmid DNA, after 24 hours
Procedure: L10-2×NLS (4 μM) and FLAG-tagged CAR plasmid DNA (2 μg) were mixed and transfected into human primary T cells. After 24 hours, CAR expression in the human primary CD8+ T cells was confirmed by immunoblotting using FLAG antibody (FIG. 19).

Jurkat T cells [5] = assay: FITC-labeled IgG antibody delivery efficiency by FACS; conditions: L10-2×NLS 4 μM or higher, 1 μg FITC-labeled IgG, 2 hours
Procedure: FITC-labeled IgG (Thermofisher) (1 μg) was mixed with L10-2×NLS at different concentrations (0.5, 1, 2, 4, or 6 μM). Each mixture was treated with Jurkat T cells for 2 hours, and then the antibody delivery efficiency to cells was confirmed using Novocyte FACS (Agilent) (FIG. 21), and the presence of the corresponding antibodies in cells was observed using a fluorescence microscope (Leica) (FIG. 22).

N′-LLLLLLLLLLLPKKKRKVPKKKRKV-C′ (Ac-LLLLLLLLLLLPKKKRKVPKKKRKV-NH2) [Peptide 11]
plasmid DNA delivery efficiency depending on leucine length (Jurkat T cells [1]): a certain level of high efficiency was maintained

N′-LLLLLLLLLLPKKKRKVPKKKRKVPKKKRKV-C′ (Ac-LLLLLLLLLLPKKKRKVPKKKRKVPKKKRKV-NH2) [Peptide 12]
GFP expression depending on copy number of NLS (Jurkat T cells [1]): maintained above a certain level

Ac-LLLLLLLLLLPKKKRKVPKKKRKV-NH2 [L10-2×NLS]
transfection level compared to Lipofectamine (Jurkat T cells [1]; 4 μM peptide, 2 μg pEGFP-N3, immunoblot after 24 hours): significantly higher level compared to Lipofectamine®
GFP expression depending on hydrophobic amino acid type (Jurkat T cells [1]; 4 μM peptide, 2 μg pEGFP-N3, mixed 30 min at 37° C., transfection 30 min, immunoblot after 24 hours, among Peptides 1 to 10): highest GFP expression
GFP expression depending on copy number of NLS (Jurkat T cells [1]): highest expression of GFP
plasmid DNA delivery efficiency depending on leucine length (Jurkat T cells [1]): highest efficiency
transformation efficiency depending on N-terminal/C-terminal location of NLS (Jurkat T cells [1]; L10-2×NLS compared with 2×NLS-L10): high efficiency
GFP expression depending on mixing buffer (Jurkat T cells [1]; Opti-MEM, DPBS or Serum free RPMI-1640): transfection levels were maintained
GFP expression efficiency depending on pEGFP-N3 amount (Jurkat T cells [1]; at 2 μg pEGFP-N3 (tested 0-6 μg), 4 μM L10-2×NLS): highest
GFP expression efficiency depending on L10-2×NLS concentration (Jurkat T cells [1]; at 4 μM (tested 2, 3, 4, 5, 6 μM), 2 μg pEGFP-N3): highest expression efficiency of GFP
GFP expression depending on mixing temperature (Jurkat T cells [1]; mixing at 37° C. (tested 4, 16, 25, 37, 42° C.) for 30 minutes): highest expression of GFP
GFP expression depending on mixing time (Jurkat T cells [1]; mixing time 30 minutes (tested 10-60 minutes), 37° C.): highest expression level
GFP expression depending on transfection time (Jurkat T cells [1]; transfection for 0.5 or 1 hour (tested 0.5-5 hours)): sufficient to deliver plasmid DNA
cell damage or cell death after transfection (Jurkat T cells [2]): did not cause any damage or cell death
plasmid DNA delivery efficiency (Jurkat T cells [3]): about 90%
plasmid DNA delivery to cells (Jurkat T cells [4]; 1 hour after transfection): delivered to the majority of cells
plasmid DNA found in the nucleus, efficiency (Jurkat T cells [4]; at 4 hours): approximately 40%
CAR expression in human primary CD8+ T cells (human primary T cells): confirmed
antibody delivery efficiency (Jurkat T cells [5]): approximately 90%

N′-LLLLLLLLLLPKKKRKVPKKKRKVPKKKRKVPKKKRKV-C′ (Ac-LLLLLLLLLLPKKKRKVPKKKRKVPKKKRKVPKKKRKV-NH2) [Peptide 13]
GFP expression depending on copy number of NLS (Jurkat T cells [1]): maintained above a certain level
